How the values were obtained:
[1] = In vitro inhibitory concentration against Methionyl-tRNA synthetase in a pyrophosphate exchange assay
[2] = target: Methionyl-tRNA synthetase (Staphylococcus aureus); test: In vitro inhibitory concentration against Staphylococcus aureus Methionyl-tRNA synthetase

| IC50 [1] [nM] | IC50 [2] [nM] | SMILES |
| --- | --- | --- |
| 1 | – | Oc1cc(NCCCNC2CCNc3c(Br)cc(Br)cc32)nc2ccccc12 (stereo not drawn) [2-[3-(6,8-Dibromo-1,2,3,4-tetrahydro-quinolin-4-ylamino)-propylamino]-1H-quinolin-4-one] |
| 500 | – | Oc1cc(NCCCNCc2ccc(Cl)c(Cl)c2)nc2ccccc12 [2-[3-(3,4-Dichloro-benzylamino)-propylamino]-1H-quinolin-4-one] |
| – | 12 | CCc1cc(I)c2c(c1)C(NCCCNc1cc(O)c3ccccc3n1)CCN2 (stereo not drawn) [2-[3-(6-Ethyl-8-iodo-1,2,3,4-tetrahydro-quinolin-4-ylamino)-propylamino]-1H-quinolin-4-one] |

— BindingDB's records for doi:10.1021/jm025502x (2002)
